Measurements as given in patent US20080206198A1, “Compounds and methods for pharmico-gene therapy of epithelial sodium channel associated disorders” (priority 2003, published 2008).
Where a name gives a salt, the structure may show the parent alone. Peptide text beside a SMILES is read from it.

Test system: primary human fibroblasts
Assay: not given
Format: cell-based
Settings: confluent primary human fibroblasts treated prior to rAAV infection; FACS at 96 hours post-infection
Method: Initial studies were performed in confluent primary human fibroblasts since dose titrations and toxicity could be quickly assessed. Selected agents were used to treat fibroblast monolayers prior to rAAV infection. rAAV transduction was assessed at 96 hours post-infection by FACS analysis, and the percentage of dead cells was simultaneously assessed by incorporation of propidium iodide.
These tripeptides are structurally related to chloroquine but have different lipid solubility and specificity for cysteine proteases (Seglen, 1983). These molecules decrease endosomal degradation of molecules by a mechanism different than altering pH.

Question: C=C1[C@@H](C)[C@H]2[C@H](Cc3ccccc3)NC(=O)[C@]23OC(=O)/C=C/[C@H](O)CCC[C@@H](C)C/C=C/[C@H]3[C@@H]1O [cytochalasin B] was tested. Which rAAV transduction did it give?
Answer: Its rAAV transduction is “significant decrease in rAAV transduction”.

Question: Which rAAV transduction does the source give for CCN(CC)CCCC(C)Nc1ccnc2cc(Cl)ccc12 (stereo not drawn) [chloroquine] here?
Answer: The rAAV transduction was “significantly inhibited rAAV transduction”.

Question: For C[C@H]1CCC/C=C/[C@@H]2C[C@H](O)C[C@H]2[C@H](O)/C=C/C(=O)O1 [BFA, brefeldin A], which rAAV transduction is on record?
Answer: Its rAAV transduction is “significant enhancement of rAAV transduction”.

Question: Cl.N [NH4Cl] was tested. Which rAAV transduction did it give?
Answer: Its rAAV transduction is “significantly inhibited rAAV transduction”.

Question: How did the rAAV transduction turn out when CC[C@]1(O)C[C@@H]2CN(CCc3c([nH]c4ccccc34)[C@@](C(=O)OC)(c3cc4c(cc3OC)N(C)[C@H]3[C@@](O)(C(=O)OC)[C@H](OC(C)=O)[C@]5(CC)C=CCN6CC[C@]43[C@@H]65)C2)C1 [vinblastine, vinblastine sulfate] was run?
Answer: Its rAAV transduction is “little effect on rAAV transduction”.

Test system: polarized human airway epithelial cells
Assay: not given
Format: cell-based
Settings: both ubiquitin ligase inhibitors combined, 2 mM pretreatment, 0.2 mM during infection
Method: Primary culture of human bronchial epithelia and reagents utilized. Primary human airway epithelial cells were collected by enzymatic digestion of bronchial samples from lung transplants, as previously described (Kondo et al., 1991; Zabner et al., 1996). Isolated primary airway cells were seeded at a density of 5×10^5 cells/cm^2 onto collagen-coated Millicell-HA culture inserts (Millipore Corp., Bedford, Mass.). Primary cultures were grown at the air-liquid interface for more than 2 weeks, by which time differentiation into a mucociliary epithelium occurs. The culture medium, used to feed only the basolateral side of the cells, contained 49% DMEM, 49% Ham's F12 and 2% Ultraser G (BioSepra, Cedex, France). Dimethyl Sulphoxide (DMSO), camptothecin (Camp), etoposide (Etop), aphidicolin (Aphi), hydroxyurea (HU) and genistein (Geni) were purchased from Sigma (St. Louis, Mo.). Tripeptidyl aldehyde proteasome inhibitors N-Acetyl-L-Leucyl-L-Leucyl-Norleucine (LLnL) and benzyloxycarbonyl-L-leucyl-L-leucyl-L-leucinal (Z-LLL) were purchased from Calbiochem-Novabiochem Corporation (La Jolla, Calif.). Ubiquitin ligase (E3) inhibitors were obtained from Bachem Bioscience Inc. (King of Prussia, Pa.). Anti-AAV capsid monoclonal antibody (Anti-VP1, 2 and 3) was purchased from American Research Products (Belmont, Mass.) and anti-ubiquitin antibody was purchased from Santa Cruz Biotechnology Inc. (Santa Cruz, Calif.).
Transduction of polarized airway epithelial cells and primary human fibroblasts. rAAV infection of fully differentiated bronchial cells was performed as described in Duan et al. (1998). For infections from the apical surface of the airway cells, 5 μl rAAV was mixed with 50 μl of culture media and applied directly onto the apical compartment of Millicell inserts (MOI=10,000 particles/cell). During apical infection, the basolateral side of the Millicell was continuously bathed in culture media. Gene transfer to the basal side was performed by inverting Millicell inserts and applying viral vector to the bottom of the supporting filter membrane in a 50 μl volume for 2 hours. Subsequently, Millicell inserts were returned to the upright position, in the continued presence of the original viral inoculum plus an additional 450 μl of media. For both apical and basolateral infections, rAAV containing media was removed after 24 hours and replaced with either fresh culture media (for the basal side) or exposed to air (for the apical side). To test the effect of different agents on the efficiency of AAV transduction in polarized airway cells, 1 μl of each solution was mixed with AAV prior to infection of airway epithelia. Agents were usually presented during the 24 hours AAV infection period unless indicated otherwise. Most of the agents were dissolved in DMSO except for hydroxyurea (dissolved in phosphate buffered saline), H-Leu-Ala-OH (dissolved in 0.9% glacial acetic acid) and H-His-Ala-OH (dissolved in 50% methanol). The working concentrations of the agents were as follows: 0.1 μM camptothecin, 10 μM etoposide, 5 μg/ml aphidicolin, 40 mM hydroxyurea, 50 μM genistein, 40 μM LLnL and 4 μM Z-LLL. When the ubiquitin ligase (E3) inhibitors (H-Leu-Ala-OH and H-His-Ala-OH) were used, airway cells were pretreated with a combination of both inhibitors at a final concentration of 2 mM for 60 minutes prior to infection, followed by the continued presence of inhibitor (0.2 mM) during the entire 24 hours infection period from the basolateral surface. Studies involving EGTA treatment were performed by transiently treating the apical membrane of polarized airway epithelia with 3 mM EGTA in water for 10 minutes (Duan et al., 1998). Following hypotonic EGTA treatment, cultures were washed twice with culture medium and infected with rAAV in the presence or absence of 40 μM LLnL. Human primary fibroblast cells (P4) were maintained in 10% fetal bovine serum (FBS), 1% penicillin and streptomycin, and 89% DMEM. […]

Question: C[C@H](NC(=O)[C@@H](N)Cc1cnc[nH]1)C(=O)O [H-His-Ala-OH] (H-His-Ala-OH) was tested. Which “rAAV transduction from the basolateral surface” value did it give?
Answer: The value was “enhanced rAAV transduction from the basolateral surface”.

Question: With CC(C)C[C@H](N)C(=O)N[C@@H](C)C(=O)O [H-Leu-Ala-OH] (H-Leu-Ala-OH) as the molecule, how does the “rAAV transduction from the basolateral surface” value read?
Answer: The value was “enhanced rAAV transduction from the basolateral surface”.

Same assay, conditions: data not shown

Question: How did the “rAAV transduction from the apical surface” value turn out when NC(=O)NO [hydroxyurea] was run?
Answer: Its value is “none of these agents facilitated rAAV transduction from the apical surface”.

Question: Which “rAAV transduction from the apical surface” value does the source give for CC[C@@]1(O)C(=O)OCc2c1cc1n(c2=O)Cc2cc3ccccc3nc2-1 [camptothecin] here?
Answer: Its value is “none of these agents facilitated rAAV transduction from the apical surface”.

Question: COc1cc([C@@H]2c3cc4c(cc3[C@@H](O[C@@H]3O[C@@H]5CO[C@@H](C)O[C@H]5[C@H](O)[C@H]3O)[C@H]3COC(=O)[C@H]23)OCO4)cc(OC)c1O [etoposide] was tested. Which “rAAV transduction from the apical surface” value did it give?
Answer: The value was “none of these agents facilitated rAAV transduction from the apical surface”.

Question: For O=c1c(-c2ccc(O)cc2)coc2cc(O)cc(O)c12 [genistein], which “rAAV transduction from the apical surface” value is on record?
Answer: Its value is “none of these agents facilitated rAAV transduction from the apical surface”.

Test system: HeLa cells
Assay: AAV2 FLAG-Luc transduction of HeLa cells (luciferase screen)
Format: cell-based, human
Settings: not given
Description: A. To screen for agents that enhance rAAV transduction, any number of cells can be used. A range of concentrations of the agent to be tested can be determined based on, for instance desirable profiles of the agent, desirable toxicity profiles of the agent and/or concentration of the agents employed in vivo. The usefulness of the cell type chosen for the screen can be confirmed by testing compounds, e.g., proteasome inhibitors such as LLnL and ZLL which are known to increase rAAV transduction. For example, a AAV2 FLAG-Luc vector was employed to transduce HeLa, ferret fibroblasts, IB3 and Huh (liver) cells in the presence or absence of the proteasome inhibitor MG132. MG132 was confirmed to enhance AAV transduction in all cell types tested: HeLa cell transduction was enhanced about 500-fold at 80 μM, and 200-fold at 40 μM, MG132; ferret fibroblast cell transduction was enhanced about 200-fold at 20 μM, and 17-fold at 4 μM, MG132; IB3-1 cell transduction was enhanced about 30 to 70-fold at 20 to 80 μM MG132; and Huh-7 cell transduction was enhanced about 15-fold at 20 to 80 μM MG132. There was no difference in rAAV transduction efficiency in HeLa cells when either DMSO or ETOH was used as a vehicle for MG132. B. HeLa cells were selected to screen for additional agents that enhance rAAV transduction, although any cell strain or line; or primary cells, may be employed. […] The range of concentrations of the agents to be tested were selected based on solubility profiles, toxicity profiles and/or concentrations previously employed in vivo.
HeLa cells were infected for 2 hours with an MOI of 100 rAAV in the presence of agents, e.g., ritonavir (Norvir) (1, 10 and 100 μM), cyclosporin A (2.5, 25 and 250 μg/ml), epoxomicin (1, 10 and 50 μM), alcacinomycin A (5, 50 or 500 μM), chymostatin (1, 10 and 100 μM), bestatin (1, 10 and 100 μM), doxorubicin (adriamycin) (0.1, 1 and 10 μM), camptothecin (camptosar) (1, 10 and 100 μM), eicosapentanoic acid (1, 10 and 100 μM), tannic acid (2, 20, 200 and 2000 μM), simvastatin, prodrug (2, 20 and 200 μM), cisplatin (0.2, 2 and 20 μg/mL), and chloroquine (4, 40 and 400 μM). Forty-eight hours after infection, cells were harvested for analysis. rAAV transduction was measured by removing the media from the cell cultures, adding 100 μL reporter lysis buffer (RLB) and freezing. The supernatant was thawed and transferred to microfuge tubes, freeze thawed an additional 2 times, clarified by centrifugation for 10 minutes and then analyzed for reporter gene expression on the lumometer. Protein was determined by Bradford analysis and results were expressed as relative light units per mg protein (RLU/mg).
Based on results with doxorubicin, a small number of FDA approved anthracyclines were tested for their relative in vitro and in vivo activities on AAV transduction. HeLa cells were infected with 100 ppc AAV2FLAG-Luc for 2 hours in the presence of different anthracyclines, e.g., doxorubicin, daunarubicin (Cerubidine), epirubicin (Ellence™), and idarubicin (Idamycin®), and cells harvested 48 hours later. The anthracyclines were pharmaceutical grade, and prepared according to the manufacturer's instructions. Prior to use, the agents were diluted in sterile water to an equal mass, e.g., 0.6 μg/mL, 3 μg/mL and 6 μg/mL. For example, 3 μg/mL idamycin increased luciferase expression by over 5000-fold while doxorubin increased luciferase expression by 58-fold. Generally, the potency was as follows: idarubicin>daunarubicin>epirubicin>doxorubicin.

Question: For CC[C@H](C)C(=O)O[C@H]1C[C@@H](C)C=C2C=C[C@H](C)[C@H](CC[C@@H]3C[C@@H](O)CC(=O)O3)[C@H]21 [lovastatin], which “result in cell line screening” value is on record?
Answer: The value was “negative results”.

Same assay, conditions: 0.6, 3 and 6 μg/mL

Question: How did the “order of potency among anthracyclines” value turn out when COc1cccc2c1C(=O)c1c(O)c3c(c(O)c1C2=O)C[C@@](O)(C(=O)CO)C[C@@H]3O[C@H]1C[C@H](N)[C@@H](O)[C@H](C)O1 [epirubicin] was run?
Answer: The value was “idarubicin>daunarubicin>epirubicin>doxorubicin”.

Question: For COc1cccc2c1C(=O)c1c(O)c3c(c(O)c1C2=O)C[C@@](O)(C(C)=O)C[C@@H]3O[C@H]1C[C@H](N)[C@H](O)[C@H](C)O1 [daunarubicin], which “order of potency among anthracyclines” value is on record?
Answer: The value was “idarubicin>daunarubicin>epirubicin>doxorubicin”.

Same assay, conditions: at the doses tested; MOI 100, 2 hours infection, harvest 48 hours

Question: Which “increase in transduction efficiency” value does the source give for CCC(C)(C)C(=O)O[C@H]1C[C@@H](C)C=C2C=C[C@H](C)[C@H](CC[C@@H]3C[C@@H](O)CC(=O)O3)[C@H]21 [simvastatin] here?
Answer: Its value is 4 fold.

Question: O=C(OC[C@H]1O[C@@H](OC(=O)c2cc(O)c(O)c(OC(=O)c3cc(O)c(O)c(O)c3)c2)[C@H](OC(=O)c2cc(O)c(O)c(OC(=O)c3cc(O)c(O)c(O)c3)c2)[C@@H](OC(=O)c2cc(O)c(O)c(OC(=O)c3cc(O)c(O)c(O)c3)c2)[C@@H]1OC(=O)c1cc(O)c(O)c(OC(=O)c2cc(O)c(O)c(O)c2)c1)c1cc(O)c(O)c(OC(=O)c2cc(O)c(O)c(O)c2)c1 [tannic acid] was tested. Which “increase in transduction efficiency” value did it give?
Answer: Its value is 17 fold.

Question: For CC[C@H](C)[C@H](NC(=O)[C@H]([C@@H](C)CC)N(C)C(C)=O)C(=O)N[C@H](C(=O)N[C@@H](CC(C)C)C(=O)[C@@]1(C)CO1)[C@@H](C)O [epoxomicin], which “increase in transduction efficiency” value is on record?
Answer: The value was ≤ 120 fold.

Question: With CC[C@@]1(O)C(=O)OCc2c1cc1n(c2=O)Cc2cc3ccccc3nc2-1 [camptothecin] as the molecule, how does the “increase in transduction efficiency” value read?
Answer: The value was 15 fold.

Question: Which “increase in transduction efficiency” value does the source give for N.N.[Cl][Pt][Cl] [cisplatin] here?
Answer: The value was 16 fold.

Same assay, conditions: dose ranges tested

Question: With CC[C@H](C)[C@H](NC(=O)[C@H]([C@@H](C)CC)N(C)C(C)=O)C(=O)N[C@H](C(=O)N[C@@H](CC(C)C)C(=O)[C@@]1(C)CO1)[C@@H](C)O [epoxomicin] as the molecule, how does the “dose dependence of transduction” value read?
Answer: Its value is “dose-dependent increase in transduction”.

Question: For CC[C@@]1(O)C(=O)OCc2c1cc1n(c2=O)Cc2cc3ccccc3nc2-1 [camptothecin], which “dose dependence of transduction” value is on record?
Answer: The value was “dose-dependent increase in transduction”.
